Assay [1] addresses T1, recombinant human cannabinoid receptor CB2 (Homo sapiens, UniProt P34972).
T1 construct: (cDNA clone) CNR0200000
Kind of assay: Cannabinoid receptor radioligand binding assay, [3H]-CP 55,940 displacement, hCB2. In a few lines:
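Membranes from hCB2-transfected cells, prepared by 1000×g then 40,000×g centrifugation, resuspended in 20 mM HEPES pH 7.4, 5 mM MgCl2, 1 mM EDTA, 10% sucrose.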

The target in the next assay is T2, human CB1 (hCB1) (Homo sapiens, UniProt P21554).
T2 construct: (cDNA clone) CNR01L000
T2 sequence (P21554 whole entry): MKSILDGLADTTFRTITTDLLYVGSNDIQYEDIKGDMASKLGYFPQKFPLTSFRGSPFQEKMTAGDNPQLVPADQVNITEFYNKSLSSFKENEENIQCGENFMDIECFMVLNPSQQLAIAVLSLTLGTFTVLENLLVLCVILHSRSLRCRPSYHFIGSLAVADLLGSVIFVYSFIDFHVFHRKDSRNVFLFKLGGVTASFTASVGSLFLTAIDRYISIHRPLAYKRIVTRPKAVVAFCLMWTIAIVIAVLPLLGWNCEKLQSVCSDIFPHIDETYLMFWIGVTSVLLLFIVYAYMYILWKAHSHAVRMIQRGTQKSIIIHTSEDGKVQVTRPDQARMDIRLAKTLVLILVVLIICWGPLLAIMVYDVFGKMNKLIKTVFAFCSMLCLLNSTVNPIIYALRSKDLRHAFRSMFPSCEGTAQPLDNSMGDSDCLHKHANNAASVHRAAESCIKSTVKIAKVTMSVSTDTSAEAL
Briefly: 35S GTPγS binding assay, hCB1 agonist. It counts as biochemical. The conditions noted are these: GTPγS agonist, HEK-293 membranes; read-out: hCB1 EC50 (GTPyS ag). (Binding of GTPγS marks nucleotide exchange on a G protein.)

The target of another assay is T3, human CB1 receptors (Homo sapiens, UniProt P21554).
T3 construct: (cDNA clone) CNR01L000
T3 sequence (P21554 whole entry): as above
Briefly: cAMP assay in HEK-293 cells, hCB1 agonist. It is filed as cell-based. The conditions noted are these: inhibition of forskolin-stimulated cAMP, HEK-293 cells; for EC50: read-out: hCB1 EC50 (cAMP ag). In a few lines:
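Stable hCB1 HEK-293 cells suspended in HBSS with 10 mM HEPES and 0.1% fatty acid-free BSA, incubated 30 min at 37° C. with compound plus forskolin (90 uM in the 3× compound solution). Lysed cAMP measured by enzyme-fragment kit; EC50 = 50% inhibition of forskolin-stimulated cAMP (forskolin maximum = 100%), sigmoidal fit.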

Usually IC50 stands for the point on the concentration scale where inhibition reaches its midpoint. By EC50 is commonly meant the concentration that produces a half-maximal response.

T1 sequence (P34972 whole entry): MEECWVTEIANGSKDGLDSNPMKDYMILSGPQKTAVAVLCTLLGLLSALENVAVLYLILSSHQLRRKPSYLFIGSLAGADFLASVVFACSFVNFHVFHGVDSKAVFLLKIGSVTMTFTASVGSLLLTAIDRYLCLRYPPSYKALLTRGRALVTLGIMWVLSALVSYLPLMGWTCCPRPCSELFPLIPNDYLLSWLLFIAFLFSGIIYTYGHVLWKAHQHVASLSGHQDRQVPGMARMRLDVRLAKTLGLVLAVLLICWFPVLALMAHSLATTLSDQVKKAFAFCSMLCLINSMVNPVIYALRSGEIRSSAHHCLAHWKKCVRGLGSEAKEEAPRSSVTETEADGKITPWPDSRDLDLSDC

For the compound `COc1ccc(C(=O)c2cc3cc(C)n(CCN4CCOCC4)c3s2)c(C(F)(F)F)c1` [Compound 119, (4-Methoxy-2-(trifluoromethyl)phenyl)(5-methyl-6-(2-morpholinoethyl)-6H-thieno[2,3-b]pyrrol-2-yl)methanone], the IC50 in assay [1] is under 100 nM. In addition, the EC50 on human CB1 (hCB1) and at human CB1 receptors was 100 to 1000 nM each time.
As to `Cc1cc2cc(C(=O)c3cccc(Cl)c3Cl)sc2n1S(=O)(=O)N1CCOCC1` [Compound 45, (2,3-Dichlorophenyl)(5-methyl-6-(morpholinosulfonyl)-6H-thieno[2,3-b]pyrrol-2-yl)methanone], the IC50 in assay [1] was under 100 nM. Moreover, at human CB1 (hCB1), the EC50 is 100 to 1000 nM. On human CB1 receptors, the “hCB1 EC50 (cAMP ag, nM)” value was “NS (NS means “Not Significant,” which means less than 30% agonist activity when compared to the positive control.)”.
As to `COc1ccc(C(=O)c2cc3cc(C)n(S(=O)(=O)CCN4CCOCC4)c3s2)cc1` [Compound 139, (4-methoxyphenyl)(5-methyl-6-(2-morpholinoethylsulfonyl)-6H-thieno[2,3-b]pyrrol-2-yl)methanone], in assay [1], the IC50 was under 100 nM. Moreover, the EC50 at human CB1 (hCB1) and at human CB1 receptors was 100 to 1000 nM in each case.
Take `CCOc1ccc(C(=O)c2cc3cc(C)n(CCN4CCOCC4)c3s2)c(Cl)c1` [Compound 126, (2-chloro-4-ethoxyphenyl)(5-methyl-6-(2-morpholinoethyl)-6H-thieno[2,3-b]pyrrol-2-yl)methanone]: the IC50 in assay [1] is under 100 nM. In addition, the concentration for a half-maximal effect (EC50) on human CB1 (hCB1) and on human CB1 receptors was 1000 to 10000 nM throughout.
On to `Cc1cc2cc(C(=O)c3cccc(Cl)c3Cl)sc2n1CCc1ccccc1` [Compound 30, (2,3-Dichlorophenyl)(5-methyl-6-phenethyl-6H-thieno[2,3-b]pyrrol-2-yl)methanone], for which the IC50 in assay [1] is under 100 nM. For the same compound, the EC50 at human CB1 (hCB1) fell in the range of 100 to 1000 nM. Moreover, at human CB1 receptors, the “hCB1 EC50 (cAMP ag, nM)” value is “NS (NS means “Not Significant,” which means less than 30% agonist activity when compared to the positive control.)”.
With `COc1ccc(C(=O)c2cc3cc(C)n(CCN4CCOCC4)c3s2)c(OC)c1` [Compound 120, (2,4-Dimethoxyphenyl)(5-methyl-6-(2-morpholinoethyl)-6H-thieno[2,3-b]pyrrol-2-yl)methanone], the IC50 in assay [1] was under 100 nM. For the same compound, the concentration for a half-maximal effect (EC50) on human CB1 (hCB1) and on human CB1 receptors was 100 to 1000 nM throughout.
Regarding `COc1ccc(C(=O)c2cc3cc(C)n(CCN4CCCOCC4)c3s2)cn1` [Compound 158, (6-(2-(1,4-oxazepan-4-yl)ethyl)-5-methyl-6H-thieno[2,3-b]pyrrol-2-yl)(6-methoxypyridin-3-yl)methanone], the EC50 on human CB1 (hCB1) was over 10000 nM. For the same compound, the “hCB1 EC50 (cAMP ag, nM)” value at human CB1 receptors is “NS (NS means “Not Significant,” which means less than 30% agonist activity when compared to the positive control.)”.
Take `COc1ccc(C(c2cc3cc(C)n(CCN4CCOCC4)c3s2)C(F)(F)F)cc1` (centres unmarked) [Compound 141, 4-(2-(5-methyl-2-(2,2,2-trifluoro-1-(4-methoxyphenyl)ethyl)-6H-thieno[2,3-b]pyrrol-6-yl)ethyl)morpholine]: the IC50 in assay [1] lay within 100 to 1000 nM. Moreover, the “hCB1 EC50 (cAMP ag, nM)” value at human CB1 receptors is “NS (NS means “Not Significant,” which means less than 30% agonist activity when compared to the positive control.)”.
Regarding `Cc1cc2cc(Cc3cccc(Cl)c3Cl)sc2n1CCN1CCOCC1` [Compound 32, 4-(2-(2-(2,3-Dichlorobenzyl)-5-methyl-6H-thieno[2,3-b]pyrrol-6-yl)ethyl)morpholine], the IC50 in assay [1] is under 100 nM. In addition, the EC50 at human CB1 receptors fell in the range of 1000 to 10000 nM.
In the case of `COc1ncccc1C(=O)c1cc2cc(C)n(CCN3CCOCC3)c2s1` [Compound 47, (2-Methoxypyridin-3-yl)(5-methyl-6-(2-morpholinoethyl)-6H-thieno[2,3-b]pyrrol-2-yl)methanone], the IC50 in assay [1] lay within 1000 to 10000 nM. For the same compound, the “hCB1 EC50 (cAMP ag, nM)” value at human CB1 receptors is “NS (NS means “Not Significant,” which means less than 30% agonist activity when compared to the positive control.)”.
For `COc1cccc(C(=O)c2cc3cc(C)n(CCN4CCOCC4)c3s2)c1` [Compound 26, (3-Methoxyphenyl)(5-methyl-6-(2-morpholinoethyl)-6H-thieno[2,3-b]pyrrol-2-yl)methanone], the IC50 in assay [1] was under 100 nM. For the same compound, at human CB1 receptors, the EC50 was in the range of 100 to 1000 nM.
In the same order, the values of `Cc1cc2cc(C(=O)c3ccc(Cl)cc3Cl)sc2n1CCN1CCOCC1` [Compound 10, (2,4-Dichlorophenyl)(5-methyl-6-(2-morpholinoethyl)-6H-thieno[2,3-b]pyrrol-2-yl)methanone] are under 100 nM and 100 to 1000 nM.
In the case of `COc1ccc(C(=O)c2cc3cc(C)n(CCN4CCCC4)c3s2)cn1` [Compound 167, (6-methoxypyridin-3-yl)(5-methyl-6-(2-(pyrrolidin-1-yl)ethyl)-6H-thieno[2,3-b]pyrrol-2-yl)methanone], the EC50 at human CB1 (hCB1) was over 10000 nM. On human CB1 receptors, the “hCB1 EC50 (cAMP ag, nM)” value is listed as “NS (NS means “Not Significant,” which means less than 30% agonist activity when compared to the positive control.)”.
Regarding `COc1ccc(C(=O)c2cc3cc(C)n(CCCNS(C)(=O)=O)c3s2)c(Cl)c1` [Compound 91, N-(3-(2-(2-Chloro-4-methoxybenzoyl)-5-methyl-6H-thieno[2,3-b]pyrrol-6-yl)propyl)methanesulfonamide], the IC50 in assay [1] was under 100 nM. In addition, at human CB1 receptors, the “hCB1 EC50 (cAMP ag, nM)” value was “NS (NS means “Not Significant,” which means less than 30% agonist activity when compared to the positive control.)”.
In the same order, the values of `Cc1cc2cc(C(=O)c3cccc(Cl)c3Cl)sc2n1S(=O)(=O)C(C)C` [Compound 38, (2,3-Dichlorophenyl)(6-(isopropylsulfonyl)-5-methyl-6H-thieno[2,3-b]pyrrol-2-yl)methanone] are under 100 nM and “NS (NS means “Not Significant,” which means less than 30% agonist activity when compared to the positive control.)”.
In the case of `Cc1ccccc1C(=O)c1cc2cc(C)n(CCN3CCOCC3)c2s1` [Compound 12, (5-Methyl-6-(2-morpholinoethyl)-6H-thieno[2,3-b]pyrrol-2-yl)(o-tolyl)methanone], the IC50 in assay [1] was under 100 nM. Besides, the EC50 at human CB1 receptors was in the range of 100 to 1000 nM.
For `COc1cc(F)ccc1C(=O)c1cc2cc(C)n(CCN3CCOCC3)c2s1` [Compound 133, (4-fluoro-2-methoxyphenyl)(5-methyl-6-(2-morpholinoethyl)-6H-thieno[2,3-b]pyrrol-2-yl)methanone] the same measures were under 100 nM and 100 to 1000 nM.
For `COc1ccc(C(=O)c2cc3cc(C)n(CCN4CCOCC4)c3s2)c(Cl)c1` [Compound 70, (2-Chloro-4-methoxyphenyl)(5-methyl-6-(2-morpholinoethyl)-6H-thieno[2,3-b]pyrrol-2-yl)methanone] the same measures were under 100 nM and 100 to 1000 nM.
Turning to `COc1ccc(C(=O)c2cc3cc(C)n(CCNC4CCOC4)c3s2)cn1` (centres unmarked) [Compound 164, (6-methoxypyridin-3-yl)(5-methyl-6-(2-((tetrahydrofuran-3-yl)amino)ethyl)-6H-thieno[2,3-b]pyrrol-2-yl)methanone], on human CB1 (hCB1), the concentration for a half-maximal effect (EC50) is over 10000 nM. Moreover, the “hCB1 EC50 (cAMP ag, nM)” value on human CB1 receptors was “NS (NS means “Not Significant,” which means less than 30% agonist activity when compared to the positive control.)”.
Consider `CCS(=O)(=O)n1c(C)cc2cc(C(=O)c3cccc(Cl)c3Cl)sc21` [Compound 25, (2,3-Dichlorophenyl)(6-(ethylsulfonyl)-5-methyl-6H-thieno[2,3-b]pyrrol-2-yl)methanone], for which the IC50 in assay [1] was under 100 nM. Further, the “hCB1 EC50 (cAMP ag, nM)” value on human CB1 receptors was “NS (NS means “Not Significant,” which means less than 30% agonist activity when compared to the positive control.)”.
For `Cc1cc2cc(C(=O)c3ccccc3)sc2n1CCN1CCOCC1` [Compound 7, (5-Methyl-6-(2-morpholinoethyl)-6H-thieno[2,3-b]pyrrol-2-yl)(phenyl)methanone], the IC50 in assay [1] was 100 to 1000 nM. Also, the concentration giving a half-maximal response (EC50) on human CB1 receptors lay within 1000 to 10000 nM.
Take `COc1ccc(C(=O)c2cc3cc(C)n(CCCNS(C)(=O)=O)c3s2)c(F)c1` [Compound 87, N-(3-(2-(2-Fluoro-4-methoxybenzoyl)-5-methyl-6H-thieno[2,3-b]pyrrol-6-yl)propyl)methanesulfonamide]: the IC50 in assay [1] lay in the range of 100 to 1000 nM. In addition, on human CB1 receptors, the “hCB1 EC50 (cAMP ag, nM)” value is on record as “NS (NS means “Not Significant,” which means less than 30% agonist activity when compared to the positive control.)”.
For `CCS(=O)(=O)n1c(C)cc2cc(C(=O)c3cccnc3Cl)sc21` [Compound 43, (2-Chloropyridin-3-yl)(6-(ethylsulfonyl)-5-methyl-6H-thieno[2,3-b]pyrrol-2-yl)methanone] the same measures were 100 to 1000 nM and “NS (NS means “Not Significant,” which means less than 30% agonist activity when compared to the positive control.)”.
Consider `Cc1cc2cc(C(=O)c3ccc(C#N)cc3)sc2n1CCN1CCOCC1` [Compound 129, 4-(5-methyl-6-(2-morpholinoethyl)-6H-thieno[2,3-b]pyrrole-2-carbonyl)benzonitrile], for which the IC50 in assay [1] fell in the range of 100 to 1000 nM. Further, on human CB1 receptors, the “hCB1 EC50 (cAMP ag, nM)” value is “NS (NS means “Not Significant,” which means less than 30% agonist activity when compared to the positive control.)”.
In the same order, the values of `Cc1cc2cc(C(=O)c3cccc(Cl)c3Cl)sc2n1CCCNS(C)(=O)=O` [Compound 37, N-(3-(2-(2,3-Dichlorobenzoyl)-5-methyl-6H-thieno[2,3-b]pyrrol-6-yl)propyl)methanesulfonamide] are under 100 nM and “NS (NS means “Not Significant,” which means less than 30% agonist activity when compared to the positive control.)”.

These data come from patent US20130029970A1 (priority 2009, published 2013).
